According to US8679478B2, “Methods of lysosomal storage disease therapy” (Duke University, priority 2010, dated 2014):

Assays:
Format in all cases: in vivo, mouse
GAA-KO mice [1] = assay: GAA activity in tissues, ERT plus clenbuterol; details: ERT plus clenbuterol v. ERT alone
Protocol: FIG. 8A-8C depicts increased GAA uptake and increased glycogen clearance in GAA-KO mice following clenbuterol treatment and ERT. […] GAA-KO mice were administered four weekly doses of rhGAA (20 mg/kg), and treated with clenbuterol (n=6) or untreated (n=5). […] Mean+/−standard deviation are shown. Statistically significant differences indicated (*=p<0.05; **=p<0.01).
(§1) For in vivo analysis of AAV vectors, stocks were administered intravenously (via the retroorbital sinus) in 3 month-old and 15 month-old GAA-KO mice, and to 3 month-old tolerant GAA-KO and DKO mice. Clenbuterol (30 μg/ml) was administered to groups of 3 month-old vector-injected and mock-injected male GAA-KO mice in drinking water for 28 days. At the indicated time points post-injection, tissue samples were obtained and processed as described below. All animal procedures were done in accordance with Duke University Institutional Animal Care and Use Committee-approved guidelines. GAA activity and glycogen content were analyzed essentially as described (Sun et al., Mol. Ther., 2005, 11:889-898; Sun et al., Mol. Ther., 2005, 11: 57-65). Rotarod testing was performed essentially as described (Sun, B. D. et al. 2005). Western blotting of hGAA was performed essentially as described (Amalfitano et al., Proc. Natl. Acad. Sci. USA, 1999, 96: 8861-8866) using the hGAA monoclonal antibody (courtesy of Genzyme Corp., Framingham, Mass.) and the CI-MPR antibody (catalog number GTX28093; Gene Tex, Irvine, Calif.).
The efficacy from gene therapy was increased by β2 agonist stimulation from clenbuterol treatment, and this benefit might be expected to affect ERT in Pompe disease, as well. Therefore, groups of 3 month-old GAA-KO mice were treated with four weekly doses of rhGAA (20 mg/kg), with or without concurrent clenbuterol treatment.

GAA-KO mice [2] = assay: GAA activity in tissues, gene therapy plus clenbuterol
Protocol: (§2) FIG. 5A-5B depicts enhanced efficacy from liver-targeted gene therapy plus clenbuterol treatment. The GAA-KO mice were injected with AAV-LSPhGAA (2×10^10 vector particles/mouse) or uninjected (5 per group). Vector-treated mice were treated with AAV-LSPhGAA and clenbuterol or with AAV-LSPhGAA alone. Untreated (mock) GAA-KO mice were used as controls. Mice were euthanized for tissue analysis 4 weeks after vector injection. […] Statistically significant differences indicated (*=p<0.05; **=p<0.01).
as §1, with “Western blotting of hGAA was performed essentially as described (Amalfitano et al., Proc. Natl. Acad. Sci. USA, 1999, 96: 8861-8866) using the hGAA monoclonal antibody (courtesy of Genzyme Corp., Framingham, Mass.) and the CI-MPR antibody (catalog number GTX28093; Gene Tex, Irvine, Calif.).” left out

[3] = test system: immune tolerant GAA-KO mice; assay: Glycogen content in tissues, ERT plus β2 agonist (Example 6)
Protocol: Male GAA-KO mice were administered four weekly doses of 20 mg/kg body weight of rhGAA and sacrificed one week following the last injection. Groups of mice were treated with clenbuterol (n=6), albuterol (n=4) or untreated (n=6). Mice were euthanized for tissue analysis 5 weeks after initiation of ERT.
Cerebral and cerebellar hemispheres were analyzed 5 weeks following the initiation of ERT. Groups of mice were treated with clenbuterol (n=6), albuterol (n=4) or untreated (n=6).
Two β2 agonists were evaluated in combination with ERT, clenbuterol and albuterol. […] Groups of 3 month-old immune tolerant GAA-KO mice (Raben et al., Human Mol. Genet., 2001, 10:2039-2047) were treated with four weekly doses of rhGAA (20 mg/kg body weight), with or without concurrent β2 agonist treatment.
Mice were sacrificed 7 days after the last injection. Selected tissues were collected for GAA enzyme activity and glycogen content analyses. All animal procedures were done in accordance with Duke University Institutional Animal Care and Use Committee-approved guidelines. GAA activity and glycogen content analyses, Rotarod testing, and Western blot detection of CI-MPR was performed essentially as described (Koeberl et al., Mol. Genet. Metab., 2011, 103:107-112. Wire hang testing was performed with a 0.5 cm mesh hardware cloth fixed to an 8 by 10 inch frame. Mice were placed on the wire mesh, which was slowly inverted 6 inches over a cage containing paper bedding. The latency, or time until the mouse fell into the cage, was recorded.

GAA-KO mice [4] = assay: Glycogen content in tissues, gene therapy plus clenbuterol; details: vector plus clenbuterol v. vector alone
Protocol: as §2, §1
Based upon the implication that CI-MPR expression was crucial to both uptake and intracellular processing of GAA in Pompe disease, levels of CI-MPR in GAA-KO mice were manipulated. A related but distinct strategy for addressing the apparently limiting role of CI-MPR expression in achieving efficacy with ERT in Pompe disease involved enhancement of rhGAA glycosylation (Raben et al., Mol. Genet. Metab., 2003, 80: 159-169; Raben et al., Transgenic Res., 2003, 12: 171-178; McVie-Wylie et al., Mol. Genet. Metab., 2008, 94: 448-455). […] The vector-transduced liver depot was enhanced by the addition of a drug, clenbuterol, which increases the expression of CI-MPR in muscle (Matsumoto et al., Arch. Oral Biol., 2006 51:603-611). The liver was transduced by administering AAV-LSPhGAA (2×10^10 vector particles) to groups of 3 month-old male GAA-KO mice, and clenbuterol (30 μg/ml) was administered to groups of 3 month-old vector-injected and mock-injected male GAA-KO mice in drinking water.

CC(C)(C)NCC(O)c1cc(Cl)c(N)c(Cl)c1 (stereo not drawn) [clenbuterol]
GAA activity (GAA-KO mice [1]; gastrocnemius, p=0.04): significantly increased
GAA activity (GAA-KO mice [1]; liver, p<0.0001): significantly increased
GAA activity (GAA-KO mice [1]; spleen, p=0.002): significantly increased
GAA activity (GAA-KO mice [2]; heart, vector plus clenbuterol v. vector alone, p=0.03): significantly increased
GAA activity (GAA-KO mice [2]; skeletal muscles and the brain, clenbuterol administration with vector): significantly increased
Glycogen content ([3]; all striated muscles with the exception of tibialis anterior, clenbuterol plus ERT v. ERT alone): reduced significantly
Glycogen content ([3]; cerebellum, β2 agonist plus ERT v. ERT alone): reduced significantly
Glycogen content (GAA-KO mice [4]; EDL, p=0.002): reduced
Glycogen content (GAA-KO mice [4]; cerebellum, p=0.03): reduced
Glycogen content (GAA-KO mice [4]; cerebrum, p<5×10^−5): reduced
Glycogen content (GAA-KO mice [4]; diaphragm, p=0.04): reduced
Glycogen content (GAA-KO mice [4]; soleus, p=0.0006): reduced
